Consider 2 compounds from publication PMC12954580, “Multivalent glycoligands with lectin/enzyme dual specificity: self-deliverable glycosidase regulators” (Chemical Communications (Cambridge, England), 2019).

A word on the IC50: it is the concentration at which inhibition is half-maximal.

Assay [1] deals with T1, concanavalin A (ConA) (Canavalia ensiformis, UniProt P02866).
T1 construct: purchased
Description: Enzyme-linked lectin assay (ELLA), HRP-ConA/mannan binding inhibition. Also noted: species or system Concanavalia einsiformis. Particulars: Figure S19A, values printed over bars, axis log [IC50, M]. Here is the method: The absorbance of the resulting mixture was determined at 405 nm.

In assay [2] the target is T2, recombinant human MMR (macrophage mannose receptor) (Homo sapiens, UniProt P22897).
T2 sequence (P22897 19-1456): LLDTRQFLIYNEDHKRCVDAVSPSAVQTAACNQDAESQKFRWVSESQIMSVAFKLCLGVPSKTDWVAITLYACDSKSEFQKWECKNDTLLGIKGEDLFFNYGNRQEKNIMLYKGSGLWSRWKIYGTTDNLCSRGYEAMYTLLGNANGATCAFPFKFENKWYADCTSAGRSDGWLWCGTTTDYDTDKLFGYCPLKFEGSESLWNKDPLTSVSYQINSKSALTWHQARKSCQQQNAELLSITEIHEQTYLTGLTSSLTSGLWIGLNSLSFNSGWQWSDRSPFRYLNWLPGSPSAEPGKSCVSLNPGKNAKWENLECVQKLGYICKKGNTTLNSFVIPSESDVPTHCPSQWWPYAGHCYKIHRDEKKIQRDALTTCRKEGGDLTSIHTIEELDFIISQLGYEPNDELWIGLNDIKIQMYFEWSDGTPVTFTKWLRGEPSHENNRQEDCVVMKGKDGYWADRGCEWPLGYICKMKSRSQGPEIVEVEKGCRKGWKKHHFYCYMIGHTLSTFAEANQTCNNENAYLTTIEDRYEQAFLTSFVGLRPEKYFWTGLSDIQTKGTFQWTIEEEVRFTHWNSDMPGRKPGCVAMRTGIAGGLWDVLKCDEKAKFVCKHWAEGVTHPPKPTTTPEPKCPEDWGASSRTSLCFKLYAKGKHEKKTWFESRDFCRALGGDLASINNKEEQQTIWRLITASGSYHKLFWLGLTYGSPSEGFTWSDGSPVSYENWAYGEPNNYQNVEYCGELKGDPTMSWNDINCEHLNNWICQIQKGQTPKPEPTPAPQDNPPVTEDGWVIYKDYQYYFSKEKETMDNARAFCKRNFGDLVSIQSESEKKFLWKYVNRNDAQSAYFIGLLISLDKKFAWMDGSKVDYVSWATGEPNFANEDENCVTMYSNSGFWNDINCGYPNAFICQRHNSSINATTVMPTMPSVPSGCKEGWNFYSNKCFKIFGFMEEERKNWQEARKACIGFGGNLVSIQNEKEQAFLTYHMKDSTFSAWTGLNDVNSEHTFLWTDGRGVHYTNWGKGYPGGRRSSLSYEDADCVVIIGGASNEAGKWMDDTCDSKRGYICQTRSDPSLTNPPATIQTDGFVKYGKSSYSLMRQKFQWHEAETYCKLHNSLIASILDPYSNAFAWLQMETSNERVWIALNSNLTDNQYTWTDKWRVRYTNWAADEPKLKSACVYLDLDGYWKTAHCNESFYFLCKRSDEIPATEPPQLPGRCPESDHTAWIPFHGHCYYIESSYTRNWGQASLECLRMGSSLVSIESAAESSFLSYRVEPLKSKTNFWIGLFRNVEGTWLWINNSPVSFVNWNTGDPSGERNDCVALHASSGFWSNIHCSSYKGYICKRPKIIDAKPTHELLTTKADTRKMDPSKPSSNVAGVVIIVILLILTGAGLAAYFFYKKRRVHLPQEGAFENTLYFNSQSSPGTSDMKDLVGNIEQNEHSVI
The experiment in a line: Modified ELLA: inhibition of rhMMR binding to yeast mannan. Conditions: mean of three independent experiments ± SD. As for the experimental part:
conjugates 3-8 the above protocol was repeated using in the last incubation step a solution of the desired HRP-ConA lectin concentration (50 µL per well) that contained inhibitors targeting the glycone, glycone/aglycone and surface sites (9-13; 500 µM; Figure S21B). Control […]
in the absence of the enzyme.
Determination of recombinant human MMR (rhMMR) binding affinities . The wells of mannan-coated microplates, prepared as above described, were filled with 100 μL of serial dilutions of rhMMR from a 10 µg·mL-1 stock solution in PBS (pH 7.3 containing 0.1 mM Ca2+ and 0.1 mM Mn2+), and incubated at 37 °C for 1 h. The plates were washed three times with PBST as described above and 100 µL of a solution of biotinylated anti -human MMR antibody (0.2 µg·mL_1, R&D Systems) in PBS was added in each well, and the plates were further incubated for 1 h at 37 °C.
The complex NeutrAvidin-biotinylated HRP was preformed separately by successively adding to Tris buffer (9.6 mL, 50 mM, pH 7.6) a solution of NeutrAvidin (100 µg·mL-1 in Tris buffer, 1.2 mL, Thermo Scientific) and a solution of biotin-conjugated HRP (25 µg·mL-1 in Tris buffer, 1.2 mL, Thermo Scientific). […] After 5 min at RT, the optical density was measured at 415 nm. […]
inhibition experiments. […] Optical density at 415 nm was determined after 5 min. The percent of inhibition was calculated as above indicated for a typical ELLA experiment.

In assay [3] the target is T3, α-mannosidase (jack beans) (Canavalia ensiformis, UniProt C0HJB3).
T3 construct: purchased; host or cells: jack beans
T3 sequence (C0HJB3 1-981): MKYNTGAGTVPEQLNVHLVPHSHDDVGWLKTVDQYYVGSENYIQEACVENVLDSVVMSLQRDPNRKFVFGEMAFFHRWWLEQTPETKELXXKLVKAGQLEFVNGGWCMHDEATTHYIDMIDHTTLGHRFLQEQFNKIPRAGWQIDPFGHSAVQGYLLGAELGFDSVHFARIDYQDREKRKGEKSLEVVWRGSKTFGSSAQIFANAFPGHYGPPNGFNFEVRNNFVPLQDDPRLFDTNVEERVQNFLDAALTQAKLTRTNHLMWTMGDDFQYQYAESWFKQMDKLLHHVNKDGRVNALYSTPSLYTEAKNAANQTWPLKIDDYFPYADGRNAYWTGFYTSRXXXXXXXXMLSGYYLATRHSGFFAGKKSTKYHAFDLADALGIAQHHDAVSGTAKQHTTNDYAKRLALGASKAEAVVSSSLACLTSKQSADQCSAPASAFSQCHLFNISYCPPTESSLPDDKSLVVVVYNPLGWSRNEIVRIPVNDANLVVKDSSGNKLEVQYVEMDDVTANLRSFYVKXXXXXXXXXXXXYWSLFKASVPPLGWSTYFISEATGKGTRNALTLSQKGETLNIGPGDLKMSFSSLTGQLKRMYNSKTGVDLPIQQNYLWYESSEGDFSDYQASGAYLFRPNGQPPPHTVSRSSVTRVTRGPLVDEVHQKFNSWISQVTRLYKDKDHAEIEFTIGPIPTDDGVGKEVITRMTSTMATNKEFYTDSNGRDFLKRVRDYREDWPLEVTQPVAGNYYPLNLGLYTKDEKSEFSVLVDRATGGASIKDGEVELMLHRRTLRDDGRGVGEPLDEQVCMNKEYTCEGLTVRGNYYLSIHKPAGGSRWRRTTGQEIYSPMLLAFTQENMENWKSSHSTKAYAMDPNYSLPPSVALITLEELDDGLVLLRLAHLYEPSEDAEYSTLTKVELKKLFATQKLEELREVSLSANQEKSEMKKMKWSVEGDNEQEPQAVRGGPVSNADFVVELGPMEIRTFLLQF
Description: Enzymatic stability / substrate behaviour towards glycosidases (gas chromatography). Particulars: control experiment. In kind it is biochemical. The source says: Preliminary evidence on the feasibility of achieving disparate glycosidase inhibition selectivity with the multivalent glycoclusters 3–8 and, at the same time, retaining intrinsic lectin binding properties was achieved by conducting control experiments using both commercial glycosidases and lectins. The glycosidase panel included α- and β-glucosidases (S. cerevisiae and bovine liver), α- and β-galactosidases (green coffee beans and E. coli) and α- and β-mannosidases (jack beans and H. pomatia). Prior to kinetic determination of the corresponding inhibition constant (Ki) values (Table S1 and Fig. S9–S18, ESI ^†), the enzymatic stability was investigated by gas chromatography. […] In all the other cases the α-mannopyranoside linkages remained stable, meaning that any effect observed in the enzyme activity should be ascribed to an inhibitor and not to a substrate behavior.

In the case of `CO[C@H]1O[C@H](CO)[C@@H](O)[C@H](O)[C@@H]1O` [MeMan, methyl α-D-mannopyranoside], in assay [1], the IC50 is 800 µM. In the case of Man9, in assay [2], the IC50 amounted to 3.9 ± 0.5 µM. Besides, the “Substrate behaviour towards GH38 jack bean Manase” value in assay [3] is on record as “substrates”.
